Measurements taken from patent US9340522B2, “Pyrazolone-derivatives and their use as PDE-4 inhibitors” (TAKEDA GMBH, priority 2008, dated 2016).
Read-outs that look alike come from different tables or passages of the source.

How the values were obtained:
[1] = tested on: LPS-induced pulmonary inflammation model in rats; test: LPS-induced pulmonary inflammation model in rats (Method A); format: in vivo; settings: Rattus norvegicus, inhaled or nasal, dosage of 1 mg/kg, intratracheal dry powder insufflation 2 h prior LPS challenge, BALF 16 h after LPS, in comparison to the placebo group
Description: Exposure of rats to aerosolized lipopolysaccharide (LPS) causes a pulmonary mainly neutrophilic inflammation, which can be assessed by bronchoalveolar lavage (BAL). LPS-induced pulmonary inflammation models are robust and are commonly used for the evaluation of test compounds modulating the immediate immune response. Phosphodiesterase-4 inhibitors are administered by intratracheal dry powder insufflation 2 h prior nose-only LPS challenge in rats. The antiinflammatory activity of the phosphodiesterase inhibitors is assessed based on pulmonary total leukocyte and neutrophil counts in the bronchoalveolar lavage fluid 16 h after LPS exposure.
Male Sprague Dawley rats weighing 250-300 g are used. Rats are delivered 1 weak prior to the experiments and have free access to water and food.
The test compound in crystalline and micronized state is blended with lactose for inhalation ad 10 mg/kg (Respitose® SV003, DMV International, Netherlands). Respitose® and test compound are transferred to 12 ml tubes and are blended for 10 min. Dilution series are prepared from the this stock blend.
A device consisting of an Abbocath®-T catheter (18G×51 mm), a one-way stop-cock and a 5 ml syringe is used for test compound insufflation. Weighed test compound blends are directly filled in the stop-cocks. Intubation of the rats is guided by sight and is done under a short time halothane anesthesia.
The administered dose of the blended material is 10 mg/kg. The expected material loss in the device is 25%, therefore the weighted dose used is 12.5 mg/kg. One day before the experiment the rat body weights are documented and the mean body weight is used to calculate the administered blend dose per rat. LPS challenged and unchallenged control animals received drug-free Respitose® as placebo. Test compound blends and Respitose are administered 2 h prior LPS challenge.
Conscious and restrained animals are connected to a nose-only exposure system (CR equipment SA, Tannay, Switzerland) and are exposed to the LPS aerosol for 30 min. The LPS-containing aerosol is generated using a compressed air driven medication nebulizer device (OCTURNO Medizintechnik GmbH, Germany). The LPS solution (E. coli, Serotype 055B5, Art.#L2880, Lot#114K4103, Sigma-Aldrich; 0.15 mg/ml, diluted in 0.1% hydroxylamine/PBS) is continuously delivered by a syringe pump (20 ml/h) to the nebulizer device. The aerosol is dispersed and transported to the exposure tower by admixture of compressed air. All rats except negative controls are exposed to LPS.
Sixteen hours after LPS challenge, animals are sacrificed with Trapanal (thiopental, […], 2 ml/rat, i.p.), the final body weights are determined and BALs are performed. For the BAL the trachea is exposed and cannulated, followed by gently lavaging the lungs three times in situ with 4 ml PBS buffer.
Determination of total leukocyte and neutrophil counts in BALF is performed with an automated leukocyte differentiation system (XT-20001V, Sysmex, Norderstedt, Germany).
Suppression of LPS-induced total cell and neutrophil influx into the lungs is calculated in % using the means of the cell counts of each treatment group in relation to the control groups:
Statistical analysis is performed on the primary cell count data using one-way ANOVA and Dunnett's multiple comparison post test vs. positive control. The Grubbs test is used to detect outliers.

[2] = Neutrophil, read-out: reduction of neutrophils
[3] = read-out: reduction of the total cell count

melting point [°C]	SMILES	inhibition in vivo at 1 mg/kg [1, 2] [%]	inhibition in vivo at 1 mg/kg [1, 3] [%]
	COC(=O)c1ccccc1S(=O)(=O)N1CCC(N2N=C(c3ccc(OC)c(OC)c3)C(C)(C)C2=O)CC1 [Compound 2, Methyl 2-({4-[3-(3,4-dimethoxyphenyl)-4,4-dimethyl-5-oxo-4,5-dihydro-1H-pyrazol-1-yl]piperidin-1-yl}sulfonyl)benzoate]	15 to 53	22 to 60
	COc1ccc(C2=NN(C3CCN(S(=O)(=O)c4c(C(C)C)cc(C(C)C)cc4C(C)C)CC3)C(=O)C2(C)C)cc1OC [Compound 9, 5-(3,4-Dimethoxyphenyl)-4,4-dimethyl-2-(1-{[2,4,6-tri(propan-2-yl)phenyl]sulfonyl}piperidin-4-yl)-2,4-dihydro-3H-pyrazol-3-one]	15 to 53	22 to 60
	COc1ccc(C2=NN(C3CCN(S(=O)(=O)c4cccc(C)c4)CC3)C(=O)C2(C)C)cc1OC [Compound 11, 5-(3,4-Dimethoxyphenyl)-4,4-dimethyl-2-{1-[(3-methylphenyl)sulfonyl]piperidin-4-yl}-2,4-dihydro-3H-pyrazol-3-one]	15 to 53	22 to 60
	COc1ccc(C2=NN(C3CCN(S(=O)(=O)c4ccccc4F)CC3)C(=O)C2(C)C)cc1OC [Compound 14, 5-(3,4-Dimethoxyphenyl)-2-{1-[(2-fluorophenyl)sulfonyl]piperidin-4-yl}-4,4-dimethyl-2,4-dihydro-3H-pyrazol-3-one]	15 to 53	22 to 60
	COc1ccc(C2=NN(C3CCN(S(=O)(=O)c4ccccc4C(F)(F)F)CC3)C(=O)C2(C)C)cc1OC [Compound 18, 5-(3,4-Dimethoxyphenyl)-4,4-dimethyl-2-(1-{[2-(trifluoromethyl)phenyl]sulfonyl}piperidin-4-yl)-2,4-dihydro-3H-pyrazol-3-one]	15 to 53	22 to 60
244	COc1ccc(C2=NN(C3CCN(S(=O)(=O)c4cccc(C(=O)O)c4)CC3)C(=O)C2(C)C)cc1OC [Compound 25, 3-({4-[3-(3,4-Dimethoxyphenyl)-4,4-dimethyl-5-oxo-4,5-dihydro-1H-pyrazol-1-yl]piperidin-1-yl}sulfonyl)benzoic acid]		
214	COC(=O)c1cccc(S(=O)(=O)N2CCC(N3N=C(c4ccc(OC)c(OC)c4)C(C)(C)C3=O)CC2)c1 [Compound 26, Methyl 3-({4-[3-(3,4-dimethoxyphenyl)-4,4-dimethyl-5-oxo-4,5-dihydro-1H-pyrazol-1-yl]piperidin-1-yl}sulfonyl)benzoate]		
183	COc1cc(C2=NN(C3CCN(S(=O)(=O)c4cccc(C)c4)CC3)C(=O)C2(C)C)cc2c1OC(C)(C)C2 [Compound 32, 5-(7-Methoxy-2,2-dimethyl-2,3-dihydro-1-benzofuran-5-yl)-4,4-dimethyl-2-{1-[(3-methylphenyl)sulfonyl]piperidin-4-yl}-2,4-dihydro-3H-pyrazol-3-one]		
265	COc1ccc(C2=NN(C3CCN(C(=O)c4cc5ccccc5[nH]4)CC3)C(=O)C2(C)C)cc1OC [Compound 61, 5-(3,4-Dimethoxyphenyl)-2-[1-(1H-indol-2-ylcarbonyl)piperidin-4-yl]-4,4-dimethyl-2,4-dihydro-3H-pyrazol-3-one]		
	COc1cccc(C(=O)N2CCC(N3N=C(c4ccc(OC)c(OC)c4)C(C)(C)C3=O)CC2)c1 [Compound 65, 5-(3,4-Dimethoxyphenyl)-2-{1-[(3-methoxyphenyl)carbonyl]piperidin-4-yl}-4,4-dimethyl-2,4-dihydro-3H-pyrazol-3-one]	15 to 53	22 to 60
	COc1ccc(C2=NN(C3CCN(C(=O)c4cccc5ccccc45)CC3)C(=O)C2(C)C)cc1OC [Compound 68, 5-(3,4-Dimethoxyphenyl)-4,4-dimethyl-2-[1-(naphthalen-1-ylcarbonyl)piperidin-4-yl]-2,4-dihydro-3H-pyrazol-3-one]	15 to 53	22 to 60
	COc1ccc(C2=NN(C3CCN(C(=O)c4cccc(Cl)c4)CC3)C(=O)C2(C)C)cc1OC [Compound 69, 2-{1-[(3-Chlorophenyl)carbonyl]piperidin-4-yl}-5-(3,4-dimethoxyphenyl)-4,4-dimethyl-2,4-dihydro-3H-pyrazol-3-one]	15 to 53	22 to 60
154 to 156	CCOc1cccc(C(=O)N2CCC(N3N=C(c4ccc(OC)c(OC)c4)C(C)(C)C3=O)CC2)c1 [Compound 70, 5-(3,4-Dimethoxyphenyl)-2-{1-[(3-ethoxyphenyl)carbonyl]piperidin-4-yl}-4,4-dimethyl-2,4-dihydro-3H-pyrazol-3-one]	15 to 53	22 to 60
	COc1ccc(C2=NN(C3CCN(C(=O)c4ccccc4Br)CC3)C(=O)C2(C)C)cc1OC [Compound 72, 2-{1-[(2-Bromophenyl)carbonyl]piperidin-4-yl}-5-(3,4-dimethoxyphenyl)-4,4-dimethyl-2,4-dihydro-3H-pyrazol-3-one]	15 to 53	22 to 60
	COc1ccc(C2=NN(C3CCN(C(=O)c4cc(OCc5ccccc5)ccc4C)CC3)C(=O)C2(C)C)cc1OC [Compound 84, 2-(1-{[5-(Benzyloxy)-2-methylphenyl]carbonyl}piperidin-4-yl)-5-(3,4-dimethoxyphenyl)-4,4-dimethyl-2,4-dihydro-3H-pyrazol-3-one]	15 to 53	22 to 60
214 to 215	COc1ccc(C2=NN(C3CCN(C(=O)c4cc(O)ccc4C)CC3)C(=O)C2(C)C)cc1OC [Compound 85, 5-(3,4-Dimethoxyphenyl)-2-{1-[(5-hydroxy-2-methylphenyl)carbonyl]piperidin-4-yl}-4,4-dimethyl-2,4-dihydro-3H-pyrazol-3-one]	15 to 53	22 to 60
	COc1ccc(C2=NN(C3CCN(C(=O)c4cc(O)ccc4F)CC3)C(=O)C2(C)C)cc1OC [Compound 90, 5-(3,4-Dimethoxyphenyl)-2-{1-[(2-fluoro-5-hydroxyphenyl)carbonyl]piperidin-4-yl}-4,4-dimethyl-2,4-dihydro-3H-pyrazol-3-one]	15 to 53	22 to 60
212 to 213	COc1ccc(C2=NN(C3CCN(C(=O)c4ccccc4O)CC3)C(=O)C2(C)C)cc1OC [Compound 94, 5-(3,4-Dimethoxyphenyl)-2-{1-[(2-hydroxyphenyl)carbonyl]piperidin-4-yl}-4,4-dimethyl-2,4-dihydro-3H-pyrazol-3-one]	15 to 53	22 to 60
176	COc1ccc(C2=NN(C3CCN(C(=O)c4ccccc4OC4CCCC4)CC3)C(=O)C2(C)C)cc1OC [Compound 96, 2-(1-{[2-(Cyclopentyloxy)phenyl]carbonyl}piperidin-4-yl)-5-(3,4-dimethoxyphenyl)-4,4-dimethyl-2,4-dihydro-3H-pyrazol-3-one]	15 to 53	22 to 60
	COc1ccc(C2=NN(C3CCN(C(=O)c4ccccc4OCC(N)=O)CC3)C(=O)C2(C)C)cc1OC [Compound 97, 2-[2-({4-[3-(3,4-Dimethoxyphenyl)-4,4-dimethyl-5-oxo-4,5-dihydro-1H-pyrazol-1-yl]piperidin-1-yl}carbonyl)phenoxy]acetamide]	15 to 53	22 to 60
